Measurements from the NIST ThermoML archive (doi:10.1021/acs.jced.8b00008).

Assay: xn = mol fraction of the nth substance listed
Details: for viscosity / speed of sound / mass density: 102 kPa, Liquid; for viscosity: Concentric cylinders viscometry; for speed of sound: Single path-length method; for mass density: Vibrating tube method; for surface tension liquid-gas: 294 K, Pendant drop shape

CCC1CCCCC1 [ethylcyclohexane] + CCCCCCCCCCCC
Details | mass density [kg/m3] | speed of sound [m/s] | viscosity [mPa·s]
293.15 K, x1 = 0.1 | 751.13 | 1296.6 | 1.43
293.15 K, x1 = 0.216 | 754.22 | 1295.2 | 1.34
293.15 K, x1 = 0.2999 | 756.65 | 1294.3 | 1.3
293.15 K, x1 = 0.4 | 759.77 | 1293.4 | 1.22
293.15 K, x1 = 0.5 | 763.3 | 1292.4 | 1.16
293.15 K, x1 = 0.5999 | 767.13 | 1291.8 | 1.13
293.15 K, x1 = 0.7 | 771.4 | 1291.3 | 1.07
293.15 K, x1 = 0.8 | 776.25 | 1291.2 | 0.998
293.15 K, x1 = 0.9 | 781.76 | 1291.7 | 0.932
303.15 K, x1 = 0.1 | 743.84 | 1257.8 | 1.2
303.15 K, x1 = 0.216 | 746.88 | 1256.6 | 1.15
303.15 K, x1 = 0.2999 | 749.28 | 1255.1 | 1.1
303.15 K, x1 = 0.4 | 752.35 | 1254 | 1.04
303.15 K, x1 = 0.5 | 755.8 | 1253.1 | 0.966
303.15 K, x1 = 0.5999 | 759.56 | 1251.7 | 0.934
303.15 K, x1 = 0.7 | 763.73 | 1250.7 | 0.887
303.15 K, x1 = 0.8 | 768.48 | 1250 | 0.832
303.15 K, x1 = 0.9 | 773.85 | 1249.7 | 0.782
313.15 K, x1 = 0.1 | 736.53 | 1219.8 | 1.02
313.15 K, x1 = 0.216 | 739.51 | 1218.6 | 0.973
313.15 K, x1 = 0.2999 | 741.87 | 1216.7 | 0.939
313.15 K, x1 = 0.4 | 744.89 | 1215.3 | 0.899
313.15 K, x1 = 0.5 | 748.26 | 1214.3 | 0.876
313.15 K, x1 = 0.5999 | 751.95 | 1212.4 | 0.85
313.15 K, x1 = 0.7 | 756.03 | 1210.9 | 0.789
313.15 K, x1 = 0.8 | 760.66 | 1209.6 | 0.743
313.15 K, x1 = 0.9 | 765.89 | 1208.6 | 0.698
323.15 K, x1 = 0.1 | 729.18 | 1182.5 | 0.893
323.15 K, x1 = 0.216 | 732.1 | 1181.1 | 0.858
323.15 K, x1 = 0.2999 | 734.42 | 1179 | 0.823
323.15 K, x1 = 0.4 | 737.38 | 1177.4 | 0.79
323.15 K, x1 = 0.5 | 740.68 | 1176.1 | 0.759
323.15 K, x1 = 0.5999 | 744.29 | 1173.8 | 0.718
323.15 K, x1 = 0.7 | 748.27 | 1171.9 | 0.686
323.15 K, x1 = 0.8 | 752.78 | 1170 | 0.646
323.15 K, x1 = 0.9 | 757.88 | 1168.3 | 0.614
333.15 K, x1 = 0.1 | 721.79 | 1146.2 | 0.769
333.15 K, x1 = 0.216 | 724.65 | 1144.3 | 0.757
333.15 K, x1 = 0.2999 | 726.93 | 1142.1 | 0.713
333.15 K, x1 = 0.4 | 729.83 | 1140.5 | 0.685
333.15 K, x1 = 0.5 | 733.05 | 1138.6 | 0.667
333.15 K, x1 = 0.5999 | 736.58 | 1136.2 | 0.627
333.15 K, x1 = 0.7 | 740.46 | 1133.9 | 0.601
333.15 K, x1 = 0.8 | 744.85 | 1131.3 | 0.567
333.15 K, x1 = 0.9 | 749.79 | 1128.9 | 0.537

Details | surface tension liquid-gas [mN/m]
x1 = 0.216 | 25.1
x1 = 0.2999 | 25.1
x1 = 0.4 | 25.1
x1 = 0.5 | 25.1
x1 = 0.5999 | 25.2
x1 = 0.8 | 25.2
